What was measured:
[1] = system: patients with septic shock; test: AdrenOSS-2 phase II clinical trial in septic shock with elevated adrenomedullin; format: in vivo, human
From the text: AdrenOSS-2 is a double-blind, placebo-controlled, randomized, multicenter, proof of concept and dose-finding phase II clinical trial to investigate the safety, tolerability and efficacy of the N-terminal ADM antibody named Adrecizumab in patients with septic shock and elevated adrenomedullin (Geven et al. BMJ Open 2019;9:e024475). In total, 301 patients with septic shock and bio-ADM concentration >70 pg/mL were randomized (2:1:1) to treatment with a single intravenous infusion over approximately 1 hour with either placebo (n=152), adrecizumab 2 ng/kg (n=72) or adrecizumab 4 ng/kg (n=77). All-cause mortality within 28 (90) days after inclusion was 25.8% (34.8%). Mean age was 68.4 years and 61% were male. For the per protocol analysis, n=294 patients remained eligible, and 14-day all-cause mortality rate was 18.5%.
In patients treated with Adrecizumab (both doses combined, per protocol population), a trend to lower short term mortality (14 days post admission) was observed compared to placebo (Hazard ratio (HR) 0.701 [0.408-1.21], p=0.100) (FIG. 8).
No such interaction was detected which in other words means, that the beneficial treatment effect was detectable for all patients independent of their pre-dose bio-ADM concentration.
This is further illustrated in Kaplan Meier Plots, where the patient populations were separated by their pre-dose bio-ADM concentration (below/above bio-ADM median) (see FIG. 11a and FIG. 11b).

[2] = system: mice with CLP-induced sepsis; conditions: pre-treatment; cited from earlier work
endotoxemic rats = conditions: pre-treatment; cited from earlier work

For “Adrecizumab: humanized version of an N-terminal anti-ADM antibody; heavy chain SEQ ID NO: 32, light chain SEQ ID NO: 33”, the “HR, 14-day mortality vs placebo” value ([1]; DPP3 above 50 ng/mL, n=44) was 1.69, the “HR, 14-day mortality vs placebo” value ([1]; pre-dose DPP3 < 50 ng/mL, n=244) was 0.426 and the “HR, 14-day mortality vs placebo” value ([1]; pre-dose DPP3 < 40, n=227) was 0.385. The “HR, 14-day mortality vs placebo” value ([1]; pre-dose DPP3 < 60, n=254) was 0.449, the “HR, 14-day mortality vs placebo” value ([1]; pre-dose DPP3 < 70, n=261) was 0.546 and the “HR, 14-day mortality vs placebo” value ([1]; pre-dose DPP3 < 90, n=273) was 0.606. For the same substance, the renal vascular leakage [2] was “attenuated renal vascular leakage” and the renal vascular leakage (endotoxemic rats) was “attenuated renal vascular leakage”.

Reference: patent US20230104578A1, “ANTI-ADRENOMEDULLIN (ADM) ANTIBODY OR ANTI-ADM ANTIBODY FRAGMENT OR ANTI-ADM NON-IG SCAFFOLD FOR USE IN THERAPY OR PREVENTION OF SHOCK” (ADRENOMED AG, priority 2020, published 2023)
